Measurements as given in publication PMC7504258, “New Hybrids of 4-Amino-2,3-polymethylene-quinoline and p-Tolylsulfonamide as Dual Inhibitors of Acetyl- and Butyrylcholinesterase and Potential Multifunctional Agents for Alzheimer’s Disease Treatment” (Molecules, 2020).

How the values were obtained:
EeAChE PAS = EeAChE PAS (Electrophorus electricus, UniProt O42275); assay: Propidium iodide displacement from the PAS of EeAChE (fluorescence); type: binding; settings: compound concentration 20 µM; mean ± SEM, n = 3
Method: EeAChE was used owing to its high degree of purification, high activity, and lower cost than human AChE (hAChE).
To determine the degree of displacement (% displacement) of propidium from the PAS of AChE, EeAChE (final concentration, 7 μM) was incubated with the test compound at a concentration of 20 μM in 1 mM Tris-HCl buffer pH 8.0, 25 °C, for 15 min. Then, propidium iodide solution (final concentration, 8 μM) was added, the samples were incubated for 15 min and the fluorescence spectrum (530 nm (excitation) and 600 nm (emission)) was taken. […] The blank contained propidium iodide of the same concentration in 1 mM Tris-HCl buffer pH 8.0. The measurements were carried out in triplicate on the FLUOStar Optima microplate reader (BMG Labtech), and the results were calculated by the following formula:% Displacement = 100 − (IFAChE+ Propidium + inhibitor/IFAChE + Propidium) × 100(1) where IFAChE + Propidium is the fluorescence intensity of the propidium associated with AChE in the absence of the test compound (taken as 100%), and IFAChE + Propidium + inhibitor is the fluorescence intensity of the propidium associated with AChE in the presence of the test compound.

Porcine liver CES = assay: CES inhibition (4-nitrophenyl acetate hydrolysis); type: biochemical; settings: inhibition at compound concentration 20 µM; mean ± SEM, n = 3
Method: (§1) All experiments were carried out in accordance with the standard protocols approved by IPAC RAS. Human erythrocyte AChE, equine serum BChE, porcine liver CES, acetylthiocholine iodide (ATCh), butyrylthiocholine iodide (BTCh), 5,5′-dithio-bis-(2-nitrobenzoic acid) (DTNB), and 4-nitrophenol acetate (4-NPA) were purchased from Sigma-Aldrich (Saint Louis, MO, USA).
Final enzyme and substrate (4-nitrophenyl acetate) concentrations were 0.02 unit/mL and 1 mM, respectively. Assays were carried out with a blank containing all constituents except porcine CES to assess non-enzymatic hydrolysis.
(§2) An initial evaluation of inhibitory activity of compounds was carried out by determination of the AChE, BChE and CES inhibition at a compound concentration of 20 µM. For this, a sample of the corresponding enzyme was incubated with the test compound for 5 min at 25 °C for temperature equilibration; then the enzyme residual activity was determined. Each experiment was performed in triplicate.
(§3) The test compounds were added to the assay solution and incubated with the enzyme at 25 °C for 5 min (for temperature equilibration) followed by the addition of substrate. A parallel control was made for the assay solution with no inhibitor.
(§4) Measurements were performed in the FLUOStar OPTIMA microplate spectrophotometer (BMG Labtech, Ortenberg, Germany). Each experiment for the IC50 assay was performed in triplicate. The results were expressed as the mean ± SEM. The reaction rates in the presence and absence of inhibitor were compared, and the percent residual enzyme activity due to the presence of test compounds was calculated. IC50 values were determined graphically from inhibition curves (log inhibitor concentration vs. percent residual enzyme activity) using Origin 6.1 software (OriginLab, Northampton, MA, USA).

Equine serum BChE = target: T1, Equine serum BChE (Equus caballus, UniProt P81908); assay: biochemical; settings: for IC50: mean ± SEM, n = 3, pH 7.5, 25 °C; for Selectivity, S = IC50 AChE/IC50 BChE: ratio IC50 AChE/IC50 BChE
T1 construct: two enzymes of non-human origin: equine serum BChE and porcine liver CES; purchased Sigma-Aldrich; host or cells: equine serum
Method: as §1
(§5) AChE and BChE activities were measured by the colorimetric method of Ellman et al.. The assay solution consisted of 0.1 M K/Na phosphate buffer pH 7.5, 25 °C, 0.33 mM DTNB, 0.02 unit/mL AChE or BChE, and 1 mM substrate (ATCh or BTCh, respectively). Reagent blanks consisted of reaction mixtures without substrates.
as §2, §3, §4

Human erythrocyte AChE = target: T2, Human erythrocyte AChE (Homo sapiens, UniProt P22303); assay: biochemical; settings: mean ± SEM, n = 3; pH 7.5, 25 °C
T2 construct: AChE from human erythrocytes was used; purchased Sigma-Aldrich; host or cells: human erythrocytes
Method: as §1, §5, §2, §3, §4

AChE = target: T3, AChE (Homo sapiens, UniProt P22303); assay: Kinetic study of AChE inhibition, steady-state inhibition constants; type: biochemical; settings: for Type of AChE inhibition: changes in both Km and Vmax
T3 construct: AChE from human erythrocytes was used; purchased Sigma-Aldrich; host or cells: human erythrocytes
Method: (§6) • Kinetic Study of AChE and BChE Inhibition. Determination of Steady-State Inhibition Constants
(§7) Mechanisms of AChE and BChE inhibition were assessed via a thorough analysis of enzyme kinetics. Residual activity was measured following 5 min incubation at 25 °C (for temperature equilibration) with three increasing concentrations of inhibitor and six decreasing substrate concentrations. Substrate was added immediately after the 5 min incubation with inhibitor and the rates of absorption were monitored at 412 nm using the FLUOStar OPTIMA (BMG Labtech) microplate spectrophotometer. Inhibition constants Ki (competitive component) and αKi (noncompetitive component) were determined by linear regression of 1/V versus 1/[S] double-reciprocal (Lineweaver-Burk) plots using Origin 6.1 software. Data were expressed as mean ± SEM (n = 3 experiments).

BChE = target: T4, BChE (Equus caballus, UniProt P81908); assay: Kinetic study of BChE inhibition, steady-state inhibition constants; type: biochemical
T4 construct: two enzymes of non-human origin: equine serum BChE and porcine liver CES; purchased Sigma-Aldrich; host or cells: equine serum
Method: as §6, §7

[1] = test system: AChE-induced Aβ aggregation; settings: at 100 µM; cited from earlier work

T2 sequence (P22303 other isoform, or with tags, fused parts or gaps): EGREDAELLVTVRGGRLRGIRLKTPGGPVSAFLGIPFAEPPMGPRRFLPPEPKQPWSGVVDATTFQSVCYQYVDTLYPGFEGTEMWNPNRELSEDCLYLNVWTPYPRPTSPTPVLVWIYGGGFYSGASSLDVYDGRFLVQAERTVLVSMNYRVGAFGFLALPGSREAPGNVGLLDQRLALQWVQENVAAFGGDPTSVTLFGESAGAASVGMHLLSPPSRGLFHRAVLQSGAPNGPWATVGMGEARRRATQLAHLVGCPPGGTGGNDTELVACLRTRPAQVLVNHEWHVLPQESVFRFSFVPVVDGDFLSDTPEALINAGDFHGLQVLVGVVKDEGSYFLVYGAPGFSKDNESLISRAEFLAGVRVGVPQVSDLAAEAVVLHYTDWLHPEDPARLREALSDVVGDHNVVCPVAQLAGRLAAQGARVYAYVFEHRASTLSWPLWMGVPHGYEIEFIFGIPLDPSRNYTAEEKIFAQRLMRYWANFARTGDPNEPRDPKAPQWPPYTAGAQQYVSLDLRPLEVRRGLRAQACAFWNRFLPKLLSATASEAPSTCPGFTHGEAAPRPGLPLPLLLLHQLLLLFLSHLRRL
T3 sequence (P22303 other isoform, or with tags, fused parts or gaps): as above
Chain of EeAChE PAS (O42275 24-633): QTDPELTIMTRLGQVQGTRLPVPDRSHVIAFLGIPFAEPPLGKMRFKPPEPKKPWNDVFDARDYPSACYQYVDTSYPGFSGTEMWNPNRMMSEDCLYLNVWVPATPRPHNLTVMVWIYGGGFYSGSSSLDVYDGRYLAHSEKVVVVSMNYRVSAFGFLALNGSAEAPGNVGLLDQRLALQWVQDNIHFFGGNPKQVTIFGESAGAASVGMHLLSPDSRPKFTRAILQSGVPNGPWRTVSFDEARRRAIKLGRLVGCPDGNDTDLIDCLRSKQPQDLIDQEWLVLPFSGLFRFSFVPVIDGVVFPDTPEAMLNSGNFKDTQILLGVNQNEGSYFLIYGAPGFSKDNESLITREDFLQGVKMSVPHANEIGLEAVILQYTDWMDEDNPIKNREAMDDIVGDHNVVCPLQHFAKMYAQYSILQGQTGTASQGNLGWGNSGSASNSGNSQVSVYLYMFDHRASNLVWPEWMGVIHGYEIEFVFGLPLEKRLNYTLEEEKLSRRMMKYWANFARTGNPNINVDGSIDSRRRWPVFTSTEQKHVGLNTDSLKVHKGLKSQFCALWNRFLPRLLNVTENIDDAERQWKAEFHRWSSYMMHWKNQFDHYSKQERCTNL
T1 sequence (P81908 whole entry): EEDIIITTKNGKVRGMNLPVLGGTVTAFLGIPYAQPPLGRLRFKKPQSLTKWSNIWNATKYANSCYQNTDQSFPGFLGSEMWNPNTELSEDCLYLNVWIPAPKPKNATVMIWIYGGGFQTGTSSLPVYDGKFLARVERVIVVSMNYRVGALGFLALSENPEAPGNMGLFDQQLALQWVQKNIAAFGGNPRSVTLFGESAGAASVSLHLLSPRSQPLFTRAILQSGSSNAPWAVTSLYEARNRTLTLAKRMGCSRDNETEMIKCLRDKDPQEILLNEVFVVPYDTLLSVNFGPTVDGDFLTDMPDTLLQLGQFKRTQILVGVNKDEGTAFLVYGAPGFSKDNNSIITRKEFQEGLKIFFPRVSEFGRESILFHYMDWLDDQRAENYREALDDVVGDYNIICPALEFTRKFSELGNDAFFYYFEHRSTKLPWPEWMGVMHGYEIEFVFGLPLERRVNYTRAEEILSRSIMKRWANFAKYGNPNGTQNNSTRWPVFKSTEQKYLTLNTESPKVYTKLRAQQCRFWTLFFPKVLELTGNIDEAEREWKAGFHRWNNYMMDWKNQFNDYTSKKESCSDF
T4 sequence (P81908 whole entry): as above

SMILES | Displacement of Propidium from the EeAChE PAS (EeAChE PAS) [%] | Porcine Liver CES, (%) (Porcine liver CES) | IC50 (Equine serum BChE) [nM] | Selectivity, S = IC50 AChE/IC50 BChE (Equine serum BChE) | IC50 (Human erythrocyte AChE) [nM] | Type of AChE inhibition (AChE) | αKi (noncompetitive component), BChE (BChE; Lineweaver-Burk analysis) [µM] | Ki (BChE; Lineweaver-Burk analysis, read-out: Ki (competitive component), BChE) [nM] | Type of BChE inhibition (BChE; changes in both Km and Vmax) | αKi (noncompetitive component), AChE (AChE; Lineweaver-Burk analysis) [µM] | Ki (AChE; Lineweaver-Burk analysis, read-out: Ki (competitive component), AChE) [nM] | decrease in AChE-induced Aβ aggregation [1] [%]
Cc1ccc(S(=O)(=O)NCCCCNc2c3c(nc4ccccc24)CCCCC3)cc1 [7j, 4-Methyl-N-(4-(7,8,9,10-tetrahydro-6H-cyclohepta[b]quinolin-11-ylamino)-butyl)-benzenesulfonamide] | 16.1 ± 1.4 | 10.3 ± 0.8 | 78.8 ± 6 | 14.7 | 1160 ± 30 |  |  |  |  |  |  | 
Cc1ccc(S(=O)(=O)NCCCNc2c3c(nc4ccccc24)CCCC3)cc1 [7f, 4-Methyl-N-(3-(1,2,3,4-tetrahydro-acridin-9-ylamino)-propyl)-benzenesulfonamide] | 9.8 ± 0.8 | 2.0 ± 0.8 | 110 ± 5 | 17.1 | 1880 ± 30 |  |  |  |  |  |  | 
O=[N+]([O-])c1ccc(OP(=O)(O)Oc2ccc([N+](=O)[O-])cc2)cc1 [BNPP, bis-4-nitrophenyl phosphate, reference compound] |  | 1.80 ± 0.11 |  |  |  |  |  |  |  |  |  | 
Cc1ccc(S(=O)(=O)NCCCCCCNc2c3c(nc4ccccc24)CCC3)cc1 [7e, N-(6-(2,3-Dihydro-1H-cyclopenta[b]quinolin-9-ylamino)-hexyl)-4-methyl-benzenesulfonamide] | 15.9 ± 1.3 | 18.6 ± 0.2 | 209 ± 8 |  | 4000 ± 90 |  |  |  |  |  |  | 
Cc1ccc(S(=O)(=O)NCCNc2c3c(nc4ccccc24)CCC3)cc1 [7a, N-(2-(2,3-Dihydro-1H-cyclopenta[b]quinolin-9-ylamino)-ethyl)-4-methyl-benzenesulfonamide] | 9.2 ± 1.0 | 11.9 ± 1.5 | 924 ± 31 | 9.8 | 9030 ± 640 |  |  |  |  |  |  | 
Cc1ccc(S(=O)(=O)NCCCNc2c3c(nc4ccccc24)CCCCCC3)cc1 [7k, N-(3-(6,7,8,9,10,11-Hexahydro-cycloocta[b]quinolin-12-ylamino)-propyl)-4-methyl-benzenesulfonamide] | 15.9 ± 1.7 | 5.2 ± 1.5 | 461 ± 7 | 24.1 | 11100 ± 200 |  |  |  |  |  |  | 
Cc1ccc(S(=O)(=O)NCCCCNc2c3c(nc4ccccc24)CCC3)cc1 [7c, N-(4-(2,3-Dihydro-1H-cyclopenta[b]quinolin-9-ylamino)-butyl)-4-methyl-benzenesulfonamide] | 14.9 ± 1.2 | 9.0 ± 0.1 | 578 ± 25 | 3.6 | 2080 ± 80 |  |  |  |  |  |  | 
Cc1ccc(S(=O)(=O)NCCCCCNc2c3c(nc4ccccc24)CCC3)cc1 [7d, N-(5-(2,3-Dihydro-1H-cyclopenta[b]quinolin-9-ylamino)-pentyl)-4-methyl-benzenesulfonamide] | 15.1 ± 1.4 | 29.6 ± 1.2 | 459 ± 44 | 4.3 | 1970 ± 50 |  |  |  |  |  |  | 
Cc1ccc(S(=O)(=O)NCCCNc2c3c(nc4ccccc24)CCCCC3)cc1 [7i, 4-Methyl-N-(3-(7,8,9,10-tetrahydro-6H-cyclohepta[b]quinolin-11-ylamino)-propyl)-benzenesulfonamide] | 13.9 ± 1.3 | 1.9 ± 0.9 | 43.1 ± 1.1 | 64.0 | 2760 ± 40 |  |  |  |  |  |  | 
Cc1ccc(S(=O)(=O)NCCCNc2c3c(nc4ccccc24)CCC3)cc1 [7b, N-(3-(2,3-Dihydro-1H-cyclopenta[b]quinolin-9-ylamino)-propyl)-4-methyl-benzenesulfonamide] | 12.3 ± 1.1 | 8.1 ± 0.6 | 327 ± 4 | 23.7 | 7760 ± 610 |  |  |  |  |  |  | 
Cc1ccc(S(=O)(=O)NCCCCCNc2c3c(nc4ccccc24)CCCC3)cc1 [7h, 4-Methyl-N-(5-(1,2,3,4-tetrahydro-acridin-9-ylamino)-pentyl)-benzenesulfonamide] | 17.5 ± 1.5 | 6.7 ± 0.8 | 68 ± 1.4 | 1.9 | 131 ± 10 | mixed-type AChE inhibitor |  |  |  |  |  | 
Cc1ccc(S(=O)(=O)NCCCCNc2c3c(nc4ccccc24)CCCC3)cc1 [7g, 4-Methyl-N-(4-(1,2,3,4-tetrahydro-acridin-9-ylamino)-butyl)-benzenesulfonamide] | 14.8 ± 1.3 | 17.1 ± 1.4 | 61.7 ± 0.3 | 10.8 | 668 ± 170 | mixed type of inhibition | 0.117 ± 0.002 | 23.5 ± 0.2 | mixed type of inhibition | 1.09 ± 0.02 | 390 ± 8 | 
CC[N+](C)(CC)CCC[n+]1c(-c2ccccc2)c2cc(N)ccc2c2ccc(N)cc21 [Propidium] |  |  |  |  |  |  |  |  |  |  |  | 82
